Measurements from US11963533B2 (priority 2017, dated 2024).
Changes are numbered by the printed parent chain. Where two headings read alike, the source gives them in different places.

B1: CghSAMPa: stable antimicrobial peptide from Eremocitrus glauca x citrus sp., SEQ ID NO: 1, expressed and purified in E. coli (protein)
chain: MCCNRGKNVSIENLHQGFTHIFESTFESTEGVAEYVSHPSHVEYANLFLANLEKVLVIDYKPTTVRV
B2: CghSAMPb: stable antimicrobial peptide from Eremocitrus glauca x citrus sp., SEQ ID NO: 2, expressed and purified in E. coli (protein)
chain: B1 chain with T19P, I21L, S24F, S40A

What was measured:
sweet orange leaves = details: in vivo
[1] = test system: C. Lso (Ca. L. solanacearum); type: in vivo, Candidatus Liberibacter solanacearum
[2] = test system: C. Las (Candidatus Liberibacter asiaticus); type: in vivo; details: HLB-positive citrus plants, trunk delivery
[3] = test system: C. Lso (Ca. L. solanacearum); type: in vivo, Candidatus Liberibacter solanacearum; remark: listed apart in the source
Ca. L. solanacearum = type: in vivo, Candidatus Liberibacter solanacearum; details: 30 μM peptide by stem injection; for growth of infected plants compared to mock treatment: Ca. L. solanacearum-infected Nb plants, 3 weeks of treatment, FIG. 3A; for bacterial titer compared to plants treated with mock solution: Ca. L. solanacearum-infected plants, FIGS. 3B and 7

| Molecule | cell death in leaves (sweet orange leaves) | time to complete digestion by pepsin (human protease pepsin) [min] | disease symptom ([1]; C. Lso-infected potato, FIG. 5) | yield of tuber production ([1]; C. Lso-infected potato, FIG. 5) | plant growth after C. Lso infection ([1]; potato plants pre-treated with SAMP 10 μM vs mock, exposed to C. Lso positive potato psyllids 5 days, 3 weeks post infection) | bacteria detected in the treated trees [2] | reduction of bacterial titer of treated trees ([2]; FIG. 4: 100 nM or 10 μM once, 5 weeks) | symptoms of new shoots and leaves from the treated trees ([2]; mock treated plants still have yellow patch symptoms) | disease symptom ([3]; C. Lso-infected tomato, FIG. 6) | plant growth after C. Lso infection ([3]; tomato plants pre-treated with SAMP vs mock, exposed to C. Lso positive potato psyllids 5 days, 4 weeks post infection) | growth of infected plants compared to mock treatment (Ca. L. solanacearum) | bacterial titer compared to plants treated with mock solution (Ca. L. solanacearum) |
| --- | --- | --- | --- | --- | --- | --- | --- | --- | --- | --- | --- | --- |
| SAMP | No cell death | ≤ 45 | clearly inhibited | increased | grew better | No bacteria were detected | 30-100 folds | no longer symptomatic | largely reduced | grew better | – | – |
| B1 | – | – | – | – | – | – | – | – | – | – | grow much better | much lower |
| B2 | – | – | – | – | – | – | – | – | – | – | grow much better | much lower |
